In ChEMBL document CHEMBL1201862, “PubChem BioAssay data set” (2004):
Calls of active or inactive are those of the source.

What was measured:
H9c2 = assay: cells; type: functional, cell-based; details: Rattus norvegicus, H9c2, Myocardium;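 note: confirmatory concentration-response retest of ultra-high-throughput screening hits for modulation of myocardial damage; cell death induced by hydrogen peroxide oxidative stress; compound pretreatment for 60 min then peroxide exposure for 2 h; potency is for protecting the cells against peroxide damage rather than for killing them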
[1] = THP-1 cell cytotoxicity, dose response, cytotoxicity control for non-replicating M. tuberculosis project (AID 489025); type: functional
[2] = microbe, parasite or virus in culture; type: functional; details: Mycobacterium tuberculosis
Estrogen receptor = molecular target: T1, Estrogen receptor (Homo sapiens, UniProt P03372);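 note: potency for inhibiting coactivator peptide recruitment to the receptor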
T1 sequence (P03372 whole entry): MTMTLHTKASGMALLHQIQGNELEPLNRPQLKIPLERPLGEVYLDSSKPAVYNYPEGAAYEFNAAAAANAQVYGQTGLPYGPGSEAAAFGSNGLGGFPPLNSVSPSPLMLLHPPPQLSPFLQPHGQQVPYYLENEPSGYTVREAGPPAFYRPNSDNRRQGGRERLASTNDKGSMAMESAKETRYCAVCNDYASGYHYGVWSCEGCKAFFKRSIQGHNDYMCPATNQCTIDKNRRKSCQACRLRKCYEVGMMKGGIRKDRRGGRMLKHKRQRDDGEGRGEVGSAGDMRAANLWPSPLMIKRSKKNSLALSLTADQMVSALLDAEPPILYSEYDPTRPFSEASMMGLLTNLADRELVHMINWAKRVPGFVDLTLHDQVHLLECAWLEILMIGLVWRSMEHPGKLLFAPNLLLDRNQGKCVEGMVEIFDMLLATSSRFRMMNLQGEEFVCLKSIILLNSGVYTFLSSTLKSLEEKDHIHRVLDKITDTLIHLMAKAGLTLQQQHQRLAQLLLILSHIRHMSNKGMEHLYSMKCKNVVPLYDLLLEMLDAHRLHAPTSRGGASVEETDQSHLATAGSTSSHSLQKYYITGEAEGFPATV

Cytochrome P450 2C9 = Cytochrome P450 2C9 (Homo sapiens, UniProt P11712)
Cytochrome P450 2D6 = Cytochrome P450 2D6 (Homo sapiens, UniProt P10635);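 note: CYP2D6 member of a cytochrome P450 panel assay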
[3] = NIH-3T3 fibroblast cytotoxicity, dose response, cytotoxicity control, cell-based, fluorescence, Alamar Blue, secondary assay (AID 2327); type: functional;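 note: NIH-3T3 mouse fibroblasts cultured with fluconazole at 8 µg/mL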
[4] = fluconazole-exposed Candida albicans growth modulators – fluorescence, retest, confirmation (AID 2467); type: functional, cell-based
cells [5] = type: functional
[6] = molecular target: T2, Heat shock factor protein 1 (Mus musculus, UniProt P38532); assay: decrease of HSF1-responsive luciferase luminescence – cell-based, NIH3T3, dose retest, confirmation (AID 2382); type: functional;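 note: NIH3T3 fibroblasts with HSF1-driven luciferase reporter stressed by proteasome inhibitor MG132; luminescence from HSF1-driven luciferase expression after 8 hours of MG132 stress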
T2 sequence (P38532 whole entry): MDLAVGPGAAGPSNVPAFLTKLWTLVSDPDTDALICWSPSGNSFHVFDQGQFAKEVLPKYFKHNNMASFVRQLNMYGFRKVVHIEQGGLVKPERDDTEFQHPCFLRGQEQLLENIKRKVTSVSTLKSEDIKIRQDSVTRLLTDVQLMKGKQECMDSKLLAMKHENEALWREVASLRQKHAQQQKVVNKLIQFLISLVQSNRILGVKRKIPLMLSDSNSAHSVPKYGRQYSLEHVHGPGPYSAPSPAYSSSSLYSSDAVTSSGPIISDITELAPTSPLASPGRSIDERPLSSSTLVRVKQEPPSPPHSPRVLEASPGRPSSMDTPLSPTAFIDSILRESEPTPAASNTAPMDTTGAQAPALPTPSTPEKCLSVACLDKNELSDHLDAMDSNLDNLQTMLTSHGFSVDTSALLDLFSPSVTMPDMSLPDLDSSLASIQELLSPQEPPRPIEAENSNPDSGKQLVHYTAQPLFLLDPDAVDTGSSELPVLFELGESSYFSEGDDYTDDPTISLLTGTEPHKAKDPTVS

cells [7] = assay: cells
[8] = NIH3T3 cell viability loss – ATP luminescence, mouse fibroblasts, counter-screen, dose response (AID 2010); type: functional, cell-based;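 note: cells exposed to compound for about 90 hours before reading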
[9] = Trypanosoma cruzi growth suppression in host cells – NIH3T3 host cells, beta-gal luminescence, confirmation (AID 2044); type: functional, cell-based;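 note: intracellular parasites grown in NIH/3T3 mouse fibroblasts as host cells; luminescent beta-galactosidase reporter signal from transgenic T. cruzi replicating inside host cells; inhibitors lower the luminescence signal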
Large T antigen = Large T antigen (Simian virus 40, UniProt P03070); type: functional, Betapolyomavirus macacae;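 note: Confirmatory-stage PubChem screen for compounds that inhibit SV40 T antigen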
[10] = molecular target: T3, Rac GTPase-activating protein 1 (Homo sapiens, UniProt Q9H0H5); assay: blockers of MgcRacGAP-driven Rac1 GTP hydrolysis – biochemical, ADP Hunter fluorescence, primary and confirmatory, confirmation (AID 624330); type: functional
T3 sequence (Q9H0H5 whole entry): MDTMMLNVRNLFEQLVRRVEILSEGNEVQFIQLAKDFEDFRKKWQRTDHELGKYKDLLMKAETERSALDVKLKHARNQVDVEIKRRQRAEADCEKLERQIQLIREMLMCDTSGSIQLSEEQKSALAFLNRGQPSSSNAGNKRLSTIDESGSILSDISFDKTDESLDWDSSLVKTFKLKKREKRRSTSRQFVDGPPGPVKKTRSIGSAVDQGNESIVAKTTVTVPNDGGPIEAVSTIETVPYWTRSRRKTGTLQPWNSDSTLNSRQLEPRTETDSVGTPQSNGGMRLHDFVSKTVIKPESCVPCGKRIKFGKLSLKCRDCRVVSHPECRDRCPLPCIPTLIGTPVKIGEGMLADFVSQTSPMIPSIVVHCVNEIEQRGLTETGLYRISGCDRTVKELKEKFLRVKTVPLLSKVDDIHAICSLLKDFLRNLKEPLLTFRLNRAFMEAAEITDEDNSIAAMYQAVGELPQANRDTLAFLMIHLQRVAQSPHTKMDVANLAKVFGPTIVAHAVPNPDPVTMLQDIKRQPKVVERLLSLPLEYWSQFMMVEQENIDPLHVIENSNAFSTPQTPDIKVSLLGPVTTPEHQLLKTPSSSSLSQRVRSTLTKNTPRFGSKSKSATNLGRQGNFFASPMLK

Streptokinase A = molecular target: T4, Streptokinase A (Streptococcus pyogenes serotype M1, UniProt P10520); assay: viability-normalized secreted streptokinase activity reduction – plasminogen activation absorbance, OD405, dose response (AID 1914); type: functional, Streptococcus pyogenes M1 GAS;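 note: secreted streptokinase activity via plasminogen activation per viability signal from cell pellet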
T4 sequence (P10520 whole entry): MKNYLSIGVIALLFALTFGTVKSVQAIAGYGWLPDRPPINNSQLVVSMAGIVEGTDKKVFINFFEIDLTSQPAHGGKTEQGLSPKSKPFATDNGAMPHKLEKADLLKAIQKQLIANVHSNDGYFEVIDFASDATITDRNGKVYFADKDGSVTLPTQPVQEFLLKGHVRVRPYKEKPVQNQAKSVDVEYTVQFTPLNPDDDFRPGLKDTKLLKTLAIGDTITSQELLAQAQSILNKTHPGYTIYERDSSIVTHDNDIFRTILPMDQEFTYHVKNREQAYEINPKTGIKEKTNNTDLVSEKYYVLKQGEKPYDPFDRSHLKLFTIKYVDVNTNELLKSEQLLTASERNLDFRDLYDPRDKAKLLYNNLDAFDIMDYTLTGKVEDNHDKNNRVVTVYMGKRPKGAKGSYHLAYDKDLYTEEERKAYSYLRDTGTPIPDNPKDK

[11] = test system: Streptococcus sp. 'group A'; assay: Streptococcus pyogenes SK(-)GAS viability under kanamycin – luminescence, BacTiterGlo, confirmation, counter-screen for streptokinase expression inhibitor project, dose response (AID 1900); type: functional, organism-based
Streptococcus = assay: GAS UMAA2166 growth inhibition – luminescence, BacTiterGlo, counter-screen for streptokinase expression inhibitor project, dose response (AID 1915); type: functional, organism-based;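 note: potency for reduction of bacterial viability or growth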
[12] = molecular target: T5, Calpain-2 catalytic subunit (Sus scrofa, UniProt P43367); assay: m-calpain protease blockers, concentration series – biochemical, fluorogenic peptide substrate, dose response (AID 1420); type: functional
T5 sequence (P43367 whole entry): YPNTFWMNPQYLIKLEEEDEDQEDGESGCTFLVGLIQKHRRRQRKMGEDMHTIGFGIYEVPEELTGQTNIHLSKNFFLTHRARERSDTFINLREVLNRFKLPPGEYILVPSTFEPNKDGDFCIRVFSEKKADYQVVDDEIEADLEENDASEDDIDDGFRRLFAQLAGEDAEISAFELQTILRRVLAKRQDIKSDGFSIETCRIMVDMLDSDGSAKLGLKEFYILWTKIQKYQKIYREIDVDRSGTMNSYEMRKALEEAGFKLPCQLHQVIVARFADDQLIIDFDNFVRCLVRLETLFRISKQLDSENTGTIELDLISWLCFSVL

[13] = Luminescence Cell-Based Dose Retest to Confirm Inhibitors of Cancer Stem Cells. [Related pubchem assays (depositor defined):AID2717, AID2721]; type: functional; details: Homo sapiens

Chain of Large T antigen (P03070 whole entry): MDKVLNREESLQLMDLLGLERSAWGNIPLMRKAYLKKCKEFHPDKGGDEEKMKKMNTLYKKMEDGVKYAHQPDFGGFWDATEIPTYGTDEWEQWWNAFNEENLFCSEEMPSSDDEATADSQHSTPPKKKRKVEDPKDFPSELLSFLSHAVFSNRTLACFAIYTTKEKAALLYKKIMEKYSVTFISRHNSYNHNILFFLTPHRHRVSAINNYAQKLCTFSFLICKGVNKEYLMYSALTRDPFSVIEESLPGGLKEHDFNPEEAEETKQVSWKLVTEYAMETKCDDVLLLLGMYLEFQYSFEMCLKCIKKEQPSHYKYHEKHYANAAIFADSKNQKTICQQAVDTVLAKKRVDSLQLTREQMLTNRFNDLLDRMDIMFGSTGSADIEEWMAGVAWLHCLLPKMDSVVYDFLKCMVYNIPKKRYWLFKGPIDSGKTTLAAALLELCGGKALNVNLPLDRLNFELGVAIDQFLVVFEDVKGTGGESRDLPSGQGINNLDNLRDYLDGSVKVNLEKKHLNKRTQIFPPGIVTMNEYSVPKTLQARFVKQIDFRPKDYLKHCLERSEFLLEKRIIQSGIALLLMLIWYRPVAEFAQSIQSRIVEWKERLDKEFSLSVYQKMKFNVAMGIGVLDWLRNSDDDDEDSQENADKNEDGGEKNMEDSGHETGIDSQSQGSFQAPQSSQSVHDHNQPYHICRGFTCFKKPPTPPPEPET
Chain of Cytochrome P450 2C9 (P11712 whole entry): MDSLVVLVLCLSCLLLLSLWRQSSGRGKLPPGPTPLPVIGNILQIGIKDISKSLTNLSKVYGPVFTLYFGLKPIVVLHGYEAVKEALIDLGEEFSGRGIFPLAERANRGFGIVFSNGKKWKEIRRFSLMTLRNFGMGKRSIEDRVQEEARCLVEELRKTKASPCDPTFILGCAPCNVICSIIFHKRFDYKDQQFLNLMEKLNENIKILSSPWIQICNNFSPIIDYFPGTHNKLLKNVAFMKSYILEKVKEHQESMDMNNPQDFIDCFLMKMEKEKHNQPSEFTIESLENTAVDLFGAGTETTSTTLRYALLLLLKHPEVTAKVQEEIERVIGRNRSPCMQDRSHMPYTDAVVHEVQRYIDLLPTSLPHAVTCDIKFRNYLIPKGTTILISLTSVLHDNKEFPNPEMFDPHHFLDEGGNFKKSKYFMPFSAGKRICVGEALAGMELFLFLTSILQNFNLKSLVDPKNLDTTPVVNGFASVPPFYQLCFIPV
Chain of Cytochrome P450 2D6 (P10635 whole entry): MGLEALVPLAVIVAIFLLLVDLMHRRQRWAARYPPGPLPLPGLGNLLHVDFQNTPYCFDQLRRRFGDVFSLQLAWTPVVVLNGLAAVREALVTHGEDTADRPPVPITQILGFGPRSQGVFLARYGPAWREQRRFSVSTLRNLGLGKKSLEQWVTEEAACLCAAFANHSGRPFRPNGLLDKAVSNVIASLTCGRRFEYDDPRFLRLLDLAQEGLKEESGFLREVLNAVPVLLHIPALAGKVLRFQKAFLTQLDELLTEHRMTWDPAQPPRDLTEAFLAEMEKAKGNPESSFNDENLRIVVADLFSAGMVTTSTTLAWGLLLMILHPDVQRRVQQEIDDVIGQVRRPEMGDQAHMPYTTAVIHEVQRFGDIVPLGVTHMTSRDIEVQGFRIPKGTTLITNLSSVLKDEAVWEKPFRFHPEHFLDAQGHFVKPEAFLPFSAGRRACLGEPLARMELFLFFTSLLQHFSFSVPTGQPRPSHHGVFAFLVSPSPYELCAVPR

O=C(CCc1nc(O)c2ccccc2n1)NNC(=O)c1ccc(F)cc1
IC50 (H9c2): > 79 µM (inactive)

Cc1ccc(C(=O)C=CNNC(=O)c2ccccc2)cc1
CC50 [1]: > 40 µM (active)

O=C(CN1CCN(c2ccccc2O)CC1)Nc1ccccc1C(=O)NCCc1ccccc1
CC50 [2]: > 40 µM (active)

CC1CCC2(CC1)NC(=O)N(CC(=O)c1ccc[nH]1)C2=O (centres undefined)
IC50 (Estrogen receptor): > 50 µM (not active)

CC(OC(=O)Cc1nnc(O)c2ccccc12)C(=O)Nc1ccc(F)cc1Cl (centres undefined)
IC50 (H9c2): 15.4 µM (active)

COc1ccc(Cn2c(N)c(C(=O)NCc3ccco3)c3nc4ccccc4nc32)cc1
AC50 (Cytochrome P450 2C9): 1 µM (inconclusive) | IC50 (Estrogen receptor): 17.3 µM (active) | AC50 (Cytochrome P450 2D6): 14.1 µM (inconclusive)

Cc1cccc(COc2ccccc2/C=N/Nc2ccc([N+](=O)[O-])cc2)c1
EC50 [3]: > 150 µM (inactive) | CC50 [2]: > 40 µM (active) | EC50 [4]: > 38 µM (not active)

O=C(N/N=C/c1ccccn1)c1[nH]c2ccc([N+](=O)[O-])cc2c1-c1ccccc1
IC50 (H9c2): > 79 µM (inactive)

COc1ccc(-c2nnn(CC(=O)OC3CCCCC3)n2)cc1OC
CC50 [1]: > 40 µM (active) | IC50 (cells [5]): 11.6 µM (active)

Cc1ccc(NC(=O)c2ccc(Nc3c([N+](=O)[O-])cc([N+](=O)[O-])cc3[N+](=O)[O-])cc2)cc1
EC50 [6]: 8.29 µM (active) | EC50 (cells [7]): 0.071 µM (active) | EC50 [8]: 15.8 µM (active) | EC50 [9]: < 0.1 µM (active)

O=C(Nc1cccc(-c2nc3ccccc3s2)c1)c1cc(-n2cnnc2)ccc1Cl
EC50 [3]: 20.3 µM (inconclusive) | CC50 [2]: > 40 µM (active) | EC50 [4]: 2.98 µM (active)

Cc1nnc(NC(=O)Cc2cccs2)s1
IC50 (Estrogen receptor): 19 µM (active)

CC(C)(C)NC(=O)C(c1c[nH]c2ccccc12)N(C(=O)Cn1nnc(-c2ccc(F)cc2)n1)c1cccc(O)c1 (centres undefined)
CC50 [2]: > 40 µM (active)

CO/C(O)=C(/C=N/c1ccc(O)cc1)[N+](=O)[O-]
IC50 (Large T antigen): 62.1 µM (active) | IC50 [10]: 25.5 µM (active)

CCn1cnc2cc(NCc3cccc(OC)c3O)ccc21
IC50 (Large T antigen): 13.3 µM (active)

O=C(CC1CC2CCC1C2)Nc1nc(-c2ccccn2)cs1 (centres undefined)
EC50 (Streptokinase A): > 150 µM (not active) | EC50 [3]: > 150 µM (inactive) | IC50 (H9c2): > 79 µM (inactive) | EC50 [11]: 4.21 µM (active) | EC50 (Streptococcus): 13.2 µM (active) | EC50 [4]: > 38 µM (not active)

Cn1c(=O)c2c3c(sc2n2c(SCC(N)=O)nnc12)CC(C(C)(C)C)CC3 (centres undefined)
IC50 [12]: 42.9 µM (not active) | CC50 [2]: > 40 µM (active)

CNS(=O)(=O)c1cc2c3c(cccc3c1)C(=O)NC2=O
IC50 (H9c2): 16.9 µM (active)

N#Cc1c(SCC(=O)Nc2nccs2)nc2c(c1-c1ccco1)CCCC2
EC50 [6]: > 195 µM (not active) | IC50 (Estrogen receptor): > 50 µM (not active)

C/C(=N\NC(=O)CSc1nc2ccccc2o1)c1ccc(O)cc1
IC50 (Large T antigen): 18.9 µM (active) | IC50 [10]: 86.9 µM (active)

O=C(N/N=C/c1ccc(O)c(O)c1)c1cc(-c2ccccc2)nc2ccccc12
IC50 (Large T antigen): 54.1 µM (active)

O=C(CC(Sc1ccc(Br)cc1)C(=O)O)c1ccc(Br)cc1 (centres undefined)
IC50 (Large T antigen): 49.4 µM (active)

O=C(CSc1nnc(-c2ccco2)[nH]1)Nc1sc2c(c1C(=O)Nc1ccccc1)CCCC2
IC50 (Estrogen receptor): 40 µM (not active)

COc1ccccc1CN=C(S)Nc1ccc2nc(N3CCN(C)CC3)cc(C)c2c1
AC50 [13]: 0.168 µM (active) | EC50 (cells [7]): 0.129 µM (active) | EC50 [8]: > 60 µM (not active) | EC50 [9]: < 0.1 µM (active)

C=CC(=O)Oc1ccc(N2Cc3ccccc3C2=O)cc1
IC50 (Large T antigen): 4.45 µM (active)

CCOC(=O)C1CCCN(C(=O)CCC(=O)Nc2ccc3nc(N4CCOCC4)cc(C)c3c2)C1 (centres undefined)
IC50 (H9c2): > 79 µM (inactive)

N#CSCC(=O)N1c2ccccc2CCc2ccccc21
IC50 (Large T antigen): 22 µM (active)

Cc1ccc(NC(=O)CCCc2nc(O)c3ccccc3n2)c(Cl)c1
IC50 (H9c2): 25.1 µM (active)

CCc1ccc2nc(N(CCN(C)C)C(=O)c3ccc4ncsc4c3)sc2c1
EC50 (cells [7]): 0.088 µM (active) | EC50 [8]: > 60 µM (not active) | EC50 [9]: < 0.1 µM (active)

Cc1ccc2[nH]c(C)c(CCNC(=O)c3cc4cc([N+](=O)[O-])ccc4oc3=O)c2c1
IC50 (cells [5]): 4.92 µM (active) | CC50 [2]: > 40 µM (active)

CCOC(=O)c1nn(-c2cccc(OC)c2)c2nc(Nc3ccccc3)cc(=O)n12
EC50 (Streptokinase A): > 150 µM (not active) | IC50 (H9c2): > 79 µM (inactive) | EC50 [11]: 3.12 µM (active) | EC50 (Streptococcus): 30 µM (active)
